Assay results taken from PMC11785709, “Angelica gigas Nakai (Korean Dang-gui) Root Alcoholic Extracts in Health Promotion and Disease Therapy – active Phytochemicals and In Vivo Molecular Targets” (Pharmaceutical Research, 2025).
Values joined by “and” are separate entries in the source; they are usually repeats but may differ in a detail not shown here. Equal entries are not always repeated. Where two headings read alike, the source gives them in different places.

What was measured:
[1] = tested on: AR; ERα; conditions: cited from earlier work; for mode of action on AR and ERα: responsive cancer cell culture models
[2] = target: T1, ROCK1 (Homo sapiens, UniProt Q13464); assay: KINOMEscan competition binding; parameters: purchased Eurofins DiscoverX (KINOMEscan)
Procedure: (§1) Two distinct platforms were used for initial screening with 50 µM DOH vs. DMSO vehicle. The first was the Eurofins DiscoverX KINOMEscan® (Freemont, CA USA) profiling platform, which employed a proprietary active site-directed competition binding assay to quantitatively measure interactions between a test compound (i.e., DOH) and 468 human protein kinases and disease relevant mutant variants either directly (sterically) or indirectly (allosterically) to prevent a kinase binding to its immobilized substrate (ligand). The top 8 hits were subjected to secondary screening verification by DOH concentration-titration for dissociation constant (Kd). For ROCK1 and ROCK2, DA was chosen for Kd titration as well, because it is ~ 10 × higher than D in peripheral circulation due to its resistance to hydrolysis by carboxyesterase-2 (Fig. 1C).

[3] = target: T2, ROCK2 (Homo sapiens, UniProt O75116); assay: KINOMEscan competition binding; parameters: purchased Eurofins DiscoverX (KINOMEscan)
Procedure: as §1

[4] = target: T3, DDR1 (Homo sapiens, UniProt Q08345); assay: Reaction Biology kinase activity inhibition; type: biochemical; conditions: for IC50: validation titration, 6.25 to 100 µM, Hotspot confirmation
T3 construct: purchased Reaction Biology (Malvern, PA)
From the text: (§2) The second screening was the Reaction Biology® (Malvern, PA) kinase activity inhibition tests, which screened for more than 600 protein kinases and lipid kinases, using miniaturized radioisotope-based assay platform with γ-^33P-ATP, followed by confirmation with IC50 kinase profiling service with 5 concentrations of test compound (i.e., DOH and DA) with curve fitting.

[5] = target: T4, CAMKK1 (Homo sapiens, UniProt Q8N5S9); assay: Reaction Biology kinase activity inhibition; type: biochemical; conditions: for IC50: validation titration, 6.25 to 100 µM, Hotspot confirmation
T4 construct: purchased Reaction Biology (Malvern, PA)
From the text: as §2

[6] = target: T5, BRSK2 (Homo sapiens, UniProt Q8IWQ3); assay: Reaction Biology kinase activity inhibition; type: biochemical; conditions: for IC50: validation titration, 6.25 to 100 µM, Hotspot confirmation
T5 construct: purchased Reaction Biology (Malvern, PA)
T5 sequence (Q8IWQ3 1-736): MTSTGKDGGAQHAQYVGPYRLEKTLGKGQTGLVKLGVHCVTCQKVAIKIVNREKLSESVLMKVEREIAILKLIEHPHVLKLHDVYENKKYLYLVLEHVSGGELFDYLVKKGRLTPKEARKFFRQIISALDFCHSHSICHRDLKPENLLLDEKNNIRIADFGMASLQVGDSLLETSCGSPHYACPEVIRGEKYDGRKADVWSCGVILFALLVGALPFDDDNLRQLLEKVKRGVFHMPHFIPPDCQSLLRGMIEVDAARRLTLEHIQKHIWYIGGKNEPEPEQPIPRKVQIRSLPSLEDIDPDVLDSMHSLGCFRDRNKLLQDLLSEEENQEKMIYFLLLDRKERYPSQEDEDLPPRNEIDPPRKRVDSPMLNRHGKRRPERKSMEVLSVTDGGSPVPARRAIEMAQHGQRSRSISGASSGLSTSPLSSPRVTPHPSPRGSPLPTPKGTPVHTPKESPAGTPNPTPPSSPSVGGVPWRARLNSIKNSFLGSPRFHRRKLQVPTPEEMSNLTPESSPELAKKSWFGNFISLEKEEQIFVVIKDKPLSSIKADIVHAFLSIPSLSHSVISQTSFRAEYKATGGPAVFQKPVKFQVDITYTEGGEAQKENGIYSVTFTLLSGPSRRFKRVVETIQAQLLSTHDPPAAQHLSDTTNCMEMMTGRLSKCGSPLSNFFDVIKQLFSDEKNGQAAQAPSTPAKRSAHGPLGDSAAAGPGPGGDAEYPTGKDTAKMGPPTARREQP
From the text: as §2

[7] = target: T6, PDK2/PDHK2 (Homo sapiens, UniProt Q15119); assay: Reaction Biology kinase activity inhibition; type: biochemical; conditions: for IC50: validation titration, 6.25 to 100 µM, Hotspot confirmation
T6 construct: purchased Reaction Biology (Malvern, PA)
From the text: as §2

[8] = target: T1, ROCK1; assay: Reaction Biology kinase activity inhibition; type: biochemical; parameters: purchased Reaction Biology (Malvern, PA)
From the text: as §2

[9] = target: T2, ROCK2; assay: Reaction Biology kinase activity inhibition; type: biochemical; parameters: purchased Reaction Biology (Malvern, PA)
From the text: as §2

[10] = tested on: MAO-B; parameters: method as in PMID 28109809; conditions: screened at 10 μM; cited from earlier work
[11] = cited from earlier work; for Cmax: 4.6 g AGN root powder per subject (0.055 mg D, 0.184 mg DA, 1.095 mg nodakenin); for t1/2 / tmax: 4.6 g AGN root powder per subject
[12] = target: T7, DRAK2 (STK17B) (Homo sapiens, UniProt O94768); assay: KINOMEscan competition binding; conditions: for Kd: validation Kd titration, 0.003 to 50 µM, two values per cell
T7 construct: purchased Eurofins DiscoverX (KINOMEscan)
T7 sequence (O94768 1-372): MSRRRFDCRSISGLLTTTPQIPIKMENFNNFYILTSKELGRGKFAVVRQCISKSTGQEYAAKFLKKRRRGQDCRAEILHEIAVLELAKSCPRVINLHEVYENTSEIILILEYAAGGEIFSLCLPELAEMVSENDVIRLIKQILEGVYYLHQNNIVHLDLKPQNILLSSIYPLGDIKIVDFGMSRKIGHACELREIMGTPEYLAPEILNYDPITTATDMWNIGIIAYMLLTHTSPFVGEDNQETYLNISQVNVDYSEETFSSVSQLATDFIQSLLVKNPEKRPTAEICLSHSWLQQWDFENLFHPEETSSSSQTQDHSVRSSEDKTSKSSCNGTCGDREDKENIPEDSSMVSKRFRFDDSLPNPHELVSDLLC
Procedure: as §1

[13] = target: T8, MKNK2 (Homo sapiens, UniProt Q9HBH9); assay: KINOMEscan competition binding; conditions: for Kd: validation Kd titration, 0.003 to 50 µM, two values per cell
T8 construct: purchased Eurofins DiscoverX (KINOMEscan)
Procedure: as §1

[14] = Eurofins DiscoveRx, Table 1, read-out: ROCK1 Kd
[15] = validation Kd titration, 0.003 to 50 µM, two values per cell, read-out: Kd
[16] = Eurofins DiscoveRx, Table 1, read-out: ROCK2 Kd
[17] = Reaction Biology, Inc, Table 1, read-out: ROCK1 IC50
[18] = validation titration, 6.25 to 100 µM, Hotspot confirmation, read-out: IC50
[19] = Reaction Biology, Inc, Table 1, read-out: ROCK2 IC50
[20] = initial screening, DOH 50 µM, read-out: Substrate bound % Control
[21] = initial screening, DOH (50 µM), Data 1 and Data 2
[22] = initial screening, DOH (50 µM), Data 1 and Data 2, read-out: % Enzyme Activity (relative to DMSO controls)

T1 sequence (Q13464 whole entry): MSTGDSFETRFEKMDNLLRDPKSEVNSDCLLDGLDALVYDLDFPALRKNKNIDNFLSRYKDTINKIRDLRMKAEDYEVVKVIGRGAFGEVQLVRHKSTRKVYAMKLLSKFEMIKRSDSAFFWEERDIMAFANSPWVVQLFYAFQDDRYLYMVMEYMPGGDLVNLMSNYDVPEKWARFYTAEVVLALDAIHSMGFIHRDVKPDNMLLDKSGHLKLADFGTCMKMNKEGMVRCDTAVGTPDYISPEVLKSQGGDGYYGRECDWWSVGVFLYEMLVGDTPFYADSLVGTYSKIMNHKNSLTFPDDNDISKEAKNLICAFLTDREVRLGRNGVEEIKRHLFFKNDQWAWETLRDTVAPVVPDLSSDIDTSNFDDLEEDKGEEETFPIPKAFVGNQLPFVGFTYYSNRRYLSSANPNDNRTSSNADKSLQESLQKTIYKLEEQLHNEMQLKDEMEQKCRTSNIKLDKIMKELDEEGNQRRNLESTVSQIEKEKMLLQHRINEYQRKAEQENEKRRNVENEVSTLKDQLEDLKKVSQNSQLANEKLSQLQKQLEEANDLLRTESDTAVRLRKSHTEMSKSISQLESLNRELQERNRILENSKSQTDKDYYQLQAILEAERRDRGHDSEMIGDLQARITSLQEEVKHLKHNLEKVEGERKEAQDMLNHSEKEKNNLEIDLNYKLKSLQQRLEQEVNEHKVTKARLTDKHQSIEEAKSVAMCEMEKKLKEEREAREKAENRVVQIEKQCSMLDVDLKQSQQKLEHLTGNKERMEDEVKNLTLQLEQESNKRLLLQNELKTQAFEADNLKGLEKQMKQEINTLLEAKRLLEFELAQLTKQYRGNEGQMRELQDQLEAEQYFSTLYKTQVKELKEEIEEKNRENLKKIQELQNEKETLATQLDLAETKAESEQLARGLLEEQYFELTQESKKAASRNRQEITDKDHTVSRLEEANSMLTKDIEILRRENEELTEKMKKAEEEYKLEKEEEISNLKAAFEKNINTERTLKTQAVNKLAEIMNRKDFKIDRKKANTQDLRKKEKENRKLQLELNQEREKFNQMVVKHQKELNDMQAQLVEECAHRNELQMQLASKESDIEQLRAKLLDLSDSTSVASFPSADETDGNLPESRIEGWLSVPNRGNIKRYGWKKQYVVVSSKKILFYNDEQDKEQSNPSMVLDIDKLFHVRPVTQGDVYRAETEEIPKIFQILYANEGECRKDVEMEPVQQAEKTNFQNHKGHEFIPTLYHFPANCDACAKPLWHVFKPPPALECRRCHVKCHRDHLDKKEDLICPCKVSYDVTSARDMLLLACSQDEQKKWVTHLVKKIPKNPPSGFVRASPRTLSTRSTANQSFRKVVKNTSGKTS
T8 sequence (Q9HBH9 whole entry): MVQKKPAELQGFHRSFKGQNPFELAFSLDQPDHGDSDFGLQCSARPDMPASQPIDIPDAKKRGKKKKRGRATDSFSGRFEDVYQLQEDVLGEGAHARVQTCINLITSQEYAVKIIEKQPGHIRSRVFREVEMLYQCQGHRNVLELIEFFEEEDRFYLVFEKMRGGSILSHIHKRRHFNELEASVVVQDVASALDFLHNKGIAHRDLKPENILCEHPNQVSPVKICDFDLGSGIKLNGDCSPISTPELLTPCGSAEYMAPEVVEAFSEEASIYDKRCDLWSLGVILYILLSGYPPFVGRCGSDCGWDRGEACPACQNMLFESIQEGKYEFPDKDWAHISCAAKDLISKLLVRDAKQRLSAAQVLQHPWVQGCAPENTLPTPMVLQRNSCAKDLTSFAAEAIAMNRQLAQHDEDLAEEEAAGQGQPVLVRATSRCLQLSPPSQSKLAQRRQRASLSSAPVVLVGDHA
T2 sequence (O75116 whole entry): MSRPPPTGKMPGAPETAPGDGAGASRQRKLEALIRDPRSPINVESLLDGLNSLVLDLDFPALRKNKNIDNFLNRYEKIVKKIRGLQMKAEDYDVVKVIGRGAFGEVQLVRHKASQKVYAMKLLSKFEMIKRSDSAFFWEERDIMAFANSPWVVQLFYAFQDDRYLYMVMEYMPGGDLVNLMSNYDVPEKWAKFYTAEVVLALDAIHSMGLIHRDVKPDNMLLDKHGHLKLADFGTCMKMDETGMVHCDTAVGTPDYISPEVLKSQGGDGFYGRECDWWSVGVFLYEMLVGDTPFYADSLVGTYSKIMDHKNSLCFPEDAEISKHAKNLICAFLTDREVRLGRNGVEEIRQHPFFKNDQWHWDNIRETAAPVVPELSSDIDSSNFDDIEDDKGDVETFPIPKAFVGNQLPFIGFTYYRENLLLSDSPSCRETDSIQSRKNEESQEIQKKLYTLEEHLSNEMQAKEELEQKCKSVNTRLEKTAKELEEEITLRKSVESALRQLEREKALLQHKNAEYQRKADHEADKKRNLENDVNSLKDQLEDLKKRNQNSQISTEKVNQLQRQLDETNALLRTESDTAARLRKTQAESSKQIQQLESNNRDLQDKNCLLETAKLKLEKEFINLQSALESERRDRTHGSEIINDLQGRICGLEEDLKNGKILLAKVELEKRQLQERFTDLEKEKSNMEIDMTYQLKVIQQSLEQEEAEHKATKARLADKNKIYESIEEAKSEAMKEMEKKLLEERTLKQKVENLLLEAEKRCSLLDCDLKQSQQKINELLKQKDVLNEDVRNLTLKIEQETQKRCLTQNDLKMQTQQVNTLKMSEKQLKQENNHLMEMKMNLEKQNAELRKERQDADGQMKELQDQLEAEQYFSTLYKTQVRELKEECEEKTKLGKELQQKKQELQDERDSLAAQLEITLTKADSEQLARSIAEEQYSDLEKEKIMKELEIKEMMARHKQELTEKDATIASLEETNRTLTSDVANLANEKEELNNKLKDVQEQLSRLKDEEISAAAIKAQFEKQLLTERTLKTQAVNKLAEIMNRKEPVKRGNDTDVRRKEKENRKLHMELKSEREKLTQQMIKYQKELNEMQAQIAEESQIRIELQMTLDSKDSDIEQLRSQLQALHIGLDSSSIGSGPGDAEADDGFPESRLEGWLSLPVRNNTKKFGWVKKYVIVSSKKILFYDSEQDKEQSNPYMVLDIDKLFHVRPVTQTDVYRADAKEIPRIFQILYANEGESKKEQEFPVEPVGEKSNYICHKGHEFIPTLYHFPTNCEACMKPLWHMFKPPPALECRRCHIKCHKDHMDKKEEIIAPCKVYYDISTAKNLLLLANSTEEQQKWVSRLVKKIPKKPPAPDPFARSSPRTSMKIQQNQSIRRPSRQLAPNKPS
T4 sequence (Q8N5S9 whole entry): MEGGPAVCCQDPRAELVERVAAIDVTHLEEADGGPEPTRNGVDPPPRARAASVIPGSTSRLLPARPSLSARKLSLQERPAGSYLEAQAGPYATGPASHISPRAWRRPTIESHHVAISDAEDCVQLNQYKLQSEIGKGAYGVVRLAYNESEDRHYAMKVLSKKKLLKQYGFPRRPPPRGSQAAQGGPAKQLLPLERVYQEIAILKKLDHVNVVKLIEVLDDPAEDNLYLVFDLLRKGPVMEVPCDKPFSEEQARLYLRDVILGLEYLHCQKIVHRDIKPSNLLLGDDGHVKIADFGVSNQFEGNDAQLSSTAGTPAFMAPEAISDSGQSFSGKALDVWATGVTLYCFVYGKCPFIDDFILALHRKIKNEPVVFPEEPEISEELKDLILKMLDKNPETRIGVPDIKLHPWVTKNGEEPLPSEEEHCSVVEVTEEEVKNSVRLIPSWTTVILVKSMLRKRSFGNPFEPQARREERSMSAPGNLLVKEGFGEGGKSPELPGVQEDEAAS
T3 sequence (Q08345 19-913): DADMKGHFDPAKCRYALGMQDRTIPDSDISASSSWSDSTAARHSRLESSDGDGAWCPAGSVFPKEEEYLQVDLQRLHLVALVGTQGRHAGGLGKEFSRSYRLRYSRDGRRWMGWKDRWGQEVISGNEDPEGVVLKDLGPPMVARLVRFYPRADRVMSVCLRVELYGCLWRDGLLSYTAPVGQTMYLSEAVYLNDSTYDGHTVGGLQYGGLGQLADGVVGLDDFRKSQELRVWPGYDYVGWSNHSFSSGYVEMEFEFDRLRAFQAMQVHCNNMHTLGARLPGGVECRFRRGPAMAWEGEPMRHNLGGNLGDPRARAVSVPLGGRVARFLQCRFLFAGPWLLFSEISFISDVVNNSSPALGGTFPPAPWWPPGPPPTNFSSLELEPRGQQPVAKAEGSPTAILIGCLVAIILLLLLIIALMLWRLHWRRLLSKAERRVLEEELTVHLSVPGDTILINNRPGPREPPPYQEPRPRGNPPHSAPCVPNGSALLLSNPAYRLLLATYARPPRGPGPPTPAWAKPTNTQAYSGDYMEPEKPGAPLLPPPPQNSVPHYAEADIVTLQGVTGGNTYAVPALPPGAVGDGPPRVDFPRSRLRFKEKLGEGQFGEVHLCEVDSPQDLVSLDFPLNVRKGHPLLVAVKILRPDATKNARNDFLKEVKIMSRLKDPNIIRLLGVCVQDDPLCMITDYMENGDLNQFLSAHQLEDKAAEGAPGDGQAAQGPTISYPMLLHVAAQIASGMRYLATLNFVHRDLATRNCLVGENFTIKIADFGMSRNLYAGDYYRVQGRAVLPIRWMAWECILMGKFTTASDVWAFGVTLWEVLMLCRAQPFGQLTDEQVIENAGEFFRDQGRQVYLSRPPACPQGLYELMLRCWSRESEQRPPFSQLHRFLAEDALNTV

C/C=C(/C)C(=O)O[C@H]1Cc2cc3ccc(=O)oc3cc2OC1(C)C [DA, decursinol angelate]
IC50 ([1]; antagonist/degrader): ~5 µM | mode of action on AR and ERα [1]: antagonists/degraders | Kd [2, 14]: 2.1 µM | Kd [2, 15]: 1.9 µM and 2.3 µM | Kd [3, 16]: 5.6 µM | Kd [3, 15]: 5.4 µM and 5.8 µM | IC50 [4]: > 100 µM | IC50 [5]: > 100 µM | IC50 [6]: > 100 µM | IC50 [7]: > 100 µM | IC50 [8, 17]: 18 µM | IC50 [8, 18]: 16 µM and 20 µM | IC50 [9, 19]: 23 µM | IC50 [9, 18]: 22 µM | inhibitory activity on MAO-B [10]: lacked any inhibitory activity | Cmax [11]: 7.72 ng/mL | t1/2 [11]: 4.04 h | tmax [11]: 0.31 h | Kd [12]: > 50 µM | Kd [13]: > 50 µM

CC1(C)Oc2cc3oc(=O)ccc3cc2C[C@@H]1O [DOH, decursinol]
EC50 ([1]; read-out: AR, ERα agonist EC50): ~10 µM | mode of action on AR and ERα [1]: weak partial agonist activity | Kd [2, 14]: 7.5 µM | remaining binding at 50 µM [2, 20]: 12% | Kd [2, 15]: 7.3 µM and 7.6 µM | Kd [3, 16]: 14.5 µM | remaining binding at 50 µM [3, 20]: 21% | Kd [3, 15]: 14 µM and 15 µM | inhibition at 50 µM ([4]; initial screening, DOH 50 µM): 49% | % Enzyme Activity (relative to DMSO controls) [4, 21]: 49.7% | remaining activity at 50 µM [4, 22]: 52.3% | IC50 [4]: > 100 µM | inhibition at 50 µM ([5]; initial screening, DOH 50 µM): 40.3% | % Enzyme Activity (relative to DMSO controls) [5, 21]: 59.3% | remaining activity at 50 µM [5, 22]: 60.1% | IC50 [5]: > 100 µM | inhibition at 50 µM ([6]; initial screening, DOH 50 µM): 46.8% | % Enzyme Activity (relative to DMSO controls) [6, 21]: 52.6% | remaining activity at 50 µM [6, 22]: 53.8% | IC50 [6]: > 100 µM | inhibition at 50 µM ([7]; initial screening, DOH 50 µM): 39.7% | % Enzyme Activity (relative to DMSO controls) [7, 21]: 59.8% | remaining activity at 50 µM [7, 22]: 60.8% | IC50 [7]: > 100 µM | IC50 [8, 17]: 81 µM | DOH % Inhibition ([8]; initial screening, DOH 50 µM): 26.6% | inhibition at 50 µM ([8]; initial screening, DOH 50 µM): 27% | % Enzyme Activity (relative to DMSO controls) [8, 21]: 72.1% | remaining activity at 50 µM [8, 22]: 74.7% | IC50 [9, 19]: 85 µM | DOH % Inhibition ([9]; initial screening, DOH 50 µM): 43.2% | inhibition at 50 µM ([9]; initial screening, DOH 50 µM): 43% | % Enzyme Activity (relative to DMSO controls) [9, 21]: 56.1% | remaining activity at 50 µM [9, 22]: 57.5% | inhibitory activity on MAO-B [10]: lacked any inhibitory activity | Cmax [11]: 0.92 ng/mL | t1/2 [11]: 2.62 h | tmax [11]: 0.64 h | remaining binding at 50 µM [12, 20]: 24% | Kd [12]: 21 µM and 22 µM | remaining binding at 50 µM [13, 20]: 25% | Kd [13]: 20 µM and 25 µM
